These results are taken from patent US20260132140A1, “IMIDAZOLYL-AMINO-PYRAZINE-CARBONITRILS AS CHK-1 INHIBITORS” (BenevolentAI Bio Limited, priority 2022, published 2026).

One experiment addresses T1, human Chk1 kinase (Homo sapiens, UniProt O14757).
T1 sequence (O14757 1-476): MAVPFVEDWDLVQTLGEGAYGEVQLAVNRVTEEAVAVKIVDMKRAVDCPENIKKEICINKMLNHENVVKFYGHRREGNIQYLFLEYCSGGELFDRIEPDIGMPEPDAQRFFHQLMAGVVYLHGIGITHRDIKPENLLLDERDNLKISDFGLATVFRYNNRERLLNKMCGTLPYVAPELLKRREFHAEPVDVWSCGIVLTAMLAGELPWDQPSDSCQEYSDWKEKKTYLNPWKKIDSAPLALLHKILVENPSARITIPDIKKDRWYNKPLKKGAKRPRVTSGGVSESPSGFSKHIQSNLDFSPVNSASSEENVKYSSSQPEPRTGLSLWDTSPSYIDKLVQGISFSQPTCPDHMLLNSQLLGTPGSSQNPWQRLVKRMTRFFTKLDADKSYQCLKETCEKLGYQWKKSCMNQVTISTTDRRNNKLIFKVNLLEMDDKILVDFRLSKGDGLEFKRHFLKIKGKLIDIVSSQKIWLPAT
Kind of experiment: biochemical.

The next experiment deals with human Chk2 kinase (Homo sapiens, UniProt O96017). Kind of experiment: biochemical.

Bounds are passed on as bounds.

Chain of human Chk2 kinase (O96017 whole entry): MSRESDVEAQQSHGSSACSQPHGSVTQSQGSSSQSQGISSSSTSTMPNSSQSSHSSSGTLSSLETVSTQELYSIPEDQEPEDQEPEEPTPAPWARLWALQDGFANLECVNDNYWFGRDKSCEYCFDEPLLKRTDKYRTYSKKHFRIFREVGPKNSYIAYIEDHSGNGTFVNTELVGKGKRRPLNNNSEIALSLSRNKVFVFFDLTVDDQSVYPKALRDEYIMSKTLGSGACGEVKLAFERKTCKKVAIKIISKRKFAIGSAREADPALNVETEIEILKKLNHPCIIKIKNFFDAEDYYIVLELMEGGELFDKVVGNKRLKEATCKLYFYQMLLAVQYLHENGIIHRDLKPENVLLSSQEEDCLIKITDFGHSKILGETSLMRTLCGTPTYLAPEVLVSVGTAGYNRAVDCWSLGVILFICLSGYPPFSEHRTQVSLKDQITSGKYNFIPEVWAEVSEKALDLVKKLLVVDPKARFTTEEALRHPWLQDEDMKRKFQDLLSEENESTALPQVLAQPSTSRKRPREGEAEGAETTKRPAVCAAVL

As usually defined, the IC50 is the point on the concentration scale where inhibition reaches its midpoint. Turning to `C[C@H]1CCN1C1CCN(c2ccc(-n3cnc(Nc4cnc(C#N)cn4)c3)cc2)C1` (single isomer, unassigned) [Example 138], the IC50 against human Chk1 kinase was less than 0.01 µM; on human Chk2 kinase, 1 to 10 µM.
The matching figures for `CC1(C)CCN1C1CCN(c2ccc(-n3cnc(Nc4cnc(C#N)cn4)c3)cc2)C1` (single isomer, unassigned) [Example 139, 5-((1-(4-(3-(2,2-Dimethylazetidin-1-yl)pyrrolidin-1-yl)phenyl)-1H-imidazol-4-yl)amino)pyrazine-2-carbonitrile]: 0.0316 to 0.1 µM and more than 100 µM.
The matching figures for `CC1(C)CCN1C1CCN(c2ccc(-n3cnc(Nc4cnc(C#N)cn4)c3)cc2)C1` (single isomer, unassigned) [Example 140, 5-((1-(4-(3-(2,2-Dimethylazetidin-1-yl)pyrrolidin-1-yl)phenyl)-1H-imidazol-4-yl)amino)pyrazine-2-carbonitrile]: less than 0.01 µM and 1 to 10 µM.
As for `N#Cc1cnc(Nc2cn(-c3cccc(N4CCC(N)C(F)(F)C4)c3)cn2)cn1` (single isomer, unassigned) [Example 166, 5-((1-(3-(4-Amino-3,3-difluoropiperidin-1-yl)phenyl)-1H-imidazol-4-yl)amino)pyrazine-2-carbonitrile], the IC50 on human Chk1 kinase is 0.0316 to 0.1 µM; against human Chk2 kinase it was more than 100 µM.
The matching figures for `N#Cc1cnc(Nc2cn(-c3ccc(CN4CC[C@@H](F)C4)c(Cl)c3)cn2)cn1` [Example 2, (R)-5-((1-(3-Chloro-4-((3-fluoropyrrolidin-1-yl)methyl)phenyl)-1H-imidazol-4-yl)amino)pyrazine-2-carbonitrile]: 0.316 to 1 µM and more than 100 µM.
The matching figures for `COc1cc(CN2CC[C@@H](F)C2)cc(F)c1-n1cnc(Nc2cnc(C#N)cn2)c1` [Example 5, (R)-5-((1-(2-Fluoro-4-((3-fluoropyrrolidin-1-yl)methyl)-6-methoxyphenyl)-1H-imidazol-4-yl)amino)pyrazine-2-carbonitrile]: 0.316 to 1 µM and more than 100 µM.
Taken in the same sequence, the figures for `N#Cc1cnc(Nc2cn(-c3ccc(CN4CC[C@@H](F)C4)cc3F)cn2)cn1` [Example 6, (R)-5-((1-(2-Fluoro-4-((3-fluoropyrrolidin-1-yl)methyl)phenyl)-1H-imidazol-4-yl)amino)pyrazine-2-carbonitrile] were 0.1 to 0.316 µM and more than 100 µM.
Take `CN1CCN(Cc2ccc(-n3cnc(Nc4cnc(C#N)cn4)c3)cc2)CC1` [Example 7, 5-((1-(4-((4-Methylpiperazin-1-yl)methyl)phenyl)-1H-imidazol-4-yl)amino)pyrazine-2-carbonitrile]: the IC50 against human Chk1 kinase was 0.1 to 0.316 µM; at human Chk2 kinase, more than 100 µM.
The matching figures for `CN1C[C@H]2C[C@@H]1CN2c1ccc(-n2cnc(Nc3cnc(C#N)cn3)c2)cc1` [Example 9, 5-((1-(4-((1R,4R)-5-Methyl-2,5-diazabicyclo[2.2.1]heptan-2-yl)phenyl)-1H-imidazol-4-yl)amino)pyrazine-2-carbonitrile]: 0.01 to 0.0316 µM and 10 to 100 µM.
Take `CN1C[C@@H]2C[C@H]1CN2c1ccc(-n2cnc(Nc3cnc(C#N)cn3)c2)cc1` [Example 10, 5-((1-(4-((1S,4S)-5-Methyl-2,5-diazabicyclo[2.2.1]heptan-2-yl)phenyl)-1H-imidazol-4-yl)amino)pyrazine-2-carbonitrile]: the half-maximal inhibitory concentration (IC50) on human Chk1 kinase lay within 0.01 to 0.0316 µM; on human Chk2 kinase, 10 to 100 µM.
Taken in the same sequence, the figures for `COc1cc(NC2CCN(C)CC2)ccc1-n1cnc(Nc2cnc(C#N)cn2)c1` [Example 13, 5-((1-(2-Methoxy-4-((1-methylpiperidin-4-yl)amino)phenyl)-1H-imidazol-4-yl)amino)pyrazine-2-carbonitrile] were 0.01 to 0.0316 µM and 10 to 100 µM.
Taken in the same sequence, the figures for `COc1cc(N(C)C2CCN(C)CC2)ccc1-n1cnc(Nc2cnc(C#N)cn2)c1` [Example 14, 5-((1-(2-Methoxy-4-(methyl(1-methylpiperidin-4-yl)amino)phenyl)-1H-imidazol-4-yl)amino)pyrazine-2-carbonitrile] were 0.01 to 0.0316 µM and 10 to 100 µM.
The matching figures for `C[C@@H]1CN(C)CCN1c1ccc(-n2cnc(Nc3cnc(C#N)cn3)c2)cc1` [Example 16, (R)-5-((1-(4-(2,4-Dimethylpiperazin-1-yl)phenyl)-1H-imidazol-4-yl)amino)pyrazine-2-carbonitrile]: 0.01 to 0.0316 µM and 10 to 100 µM.
As for `C[C@H]1CN(C)CCN1c1ccc(-n2cnc(Nc3cnc(C#N)cn3)c2)cc1` [Example 17, (S)-5-((1-(4-(2,4-Dimethylpiperazin-1-yl)phenyl)-1H-imidazol-4-yl)amino)pyrazine-2-carbonitrile], the results for the IC50 on human Chk1 kinase and at human Chk2 kinase were 0.0316 to 0.1 µM and 10 to 100 µM, respectively.
The matching figures for `CN1CCN(c2ccc(-n3cnc(Nc4cnc(C#N)cn4)c3)nc2)CC1` [Example 18, 5-((1-(5-(4-Methylpiperazin-1-yl)pyridin-2-yl)-1H-imidazol-4-yl)amino)pyrazine-2-carbonitrile]: 0.01 to 0.0316 µM and 1 to 10 µM.
The matching figures for `CN1CCN(c2ccc(-n3cnc(Nc4cnc(C#N)cn4)c3)cn2)CC1` [Example 19, 5-((1-(6-(4-Methylpiperazin-1-yl)pyridin-3-yl)-1H-imidazol-4-yl)amino)pyrazine-2-carbonitrile]: 0.1 to 0.316 µM and 10 to 100 µM.
Taken in the same sequence, the figures for `CN1CCCN(c2ccc(-n3cnc(Nc4cnc(C#N)cn4)c3)cn2)CC1` [Example 20, 5-((1-(6-(4-methyl-1,4-Diazepan-1-yl)pyridin-3-yl)-1H-imidazol-4-yl)amino)pyrazine-2-carbonitrile] were 0.1 to 0.316 µM and 10 to 100 µM.
As for `CN1CCN(c2ccc(-n3cnc(Nc4cnc(C#N)cn4)c3)cc2F)CC1` [Example 21, 5-((1-(3-Fluoro-4-(4-methylpiperazin-1-yl)phenyl)-1H-imidazol-4-yl)amino)pyrazine-2-carbonitrile], the figures for the IC50 against human Chk1 kinase and against human Chk2 kinase were 0.0316 to 0.1 µM and 10 to 100 µM, respectively.
The matching figures for `CN1C[C@H](OCc2ccc(-n3cnc(Nc4cnc(C#N)cn4)c3)cc2)[C@@H](F)C1` [Example 24, 5-((1-(4-((((3S,4S)-4-Fluoro-1-methylpyrrolidin-3-yl)oxy)methyl)phenyl)-1H-imidazol-4-yl)amino)pyrazine-2-carbonitrile]: 0.0316 to 0.1 µM and more than 100 µM.
With `CN1CCC(Nc2ccc(-n3cnc(Nc4cnc(C#N)cn4)c3)cc2)CC1` [Example 26, 5-((1-(4-((1-Methylpiperidin-4-yl)amino)phenyl)-1H-imidazol-4-yl)amino)pyrazine-2-carbonitrile], the half-inhibitory concentration (IC50) is 0.01 to 0.0316 µM against human Chk1 kinase and 10 to 100 µM at human Chk2 kinase.
The matching figures for `CCN1CCN(c2ccc(-n3cnc(Nc4cnc(C#N)cn4)c3)c(OC)c2)CC1` [Example 27, 5-((1-(4-(4-Ethylpiperazin-1-yl)-2-methoxyphenyl)-1H-imidazol-4-yl)amino)pyrazine-2-carbonitrile]: less than 0.01 µM and 1 to 10 µM.
Turning to `Cc1cc(-n2cnc(Nc3cnc(C#N)cn3)c2)ccc1N1CCN(C)CC1` [Example 28, 5-((1-(3-Methyl-4-(4-methylpiperazin-1-yl)phenyl)-1H-imidazol-4-yl)amino)pyrazine-2-carbonitrile], the IC50 on human Chk1 kinase lay in the range of 0.01 to 0.0316 µM; against human Chk2 kinase, 10 to 100 µM.
Taken in the same sequence, the figures for `COc1cc(N2CCN3CCC[C@H]3C2)ccc1-n1cnc(Nc2cnc(C#N)cn2)c1` [Example 30, (S)-5-((1-(4-(Hexahydropyrrolo[1,2-a]pyrazin-2(1H)-yl)-2-methoxyphenyl)-1H-imidazol-4-yl)amino)pyrazine-2-carbonitrile] were less than 0.01 µM and 10 to 100 µM.
As to `COc1cc(N2CCN(C)C[C@@H]2C)ccc1-n1cnc(Nc2cnc(C#N)cn2)c1` [Example 31, (S)-5-((1-(4-(2,4-Dimethylpiperazin-1-yl)-2-methoxyphenyl)-1H-imidazol-4-yl)amino)pyrazine-2-carbonitrile], the 50% inhibitory concentration (IC50) on human Chk1 kinase was 0.01 to 0.0316 µM; against human Chk2 kinase, 10 to 100 µM.
The matching figures for `CN(C)C1CN(c2ccc(-n3cnc(Nc4cnc(C#N)cn4)c3)cc2)C1` [Example 32, 5-((1-(4-(3-(Dimethylamino)azetidin-1-yl)phenyl)-1H-imidazol-4-yl)amino)pyrazine-2-carbonitrile]: less than 0.01 µM and more than 100 µM.
In the case of `CN1CCCN(c2cccc(-n3cnc(Nc4cnc(C#N)cn4)c3)c2)CC1` [Example 33, 5-((1-(3-(4-Methyl-1,4-diazepan-1-yl)phenyl)-1H-imidazol-4-yl)amino)pyrazine-2-carbonitrile], the IC50 against human Chk1 kinase is 0.0316 to 0.1 µM; against human Chk2 kinase, 10 to 100 µM.
In the case of `CN1CCCC12CN(c1cccc(-n3cnc(Nc4cnc(C#N)cn4)c3)c1)C2` [Example 34, 5-((1-(3-(5-Methyl-2,5-diazaspiro[3.4]octan-2-yl)phenyl)-1H-imidazol-4-yl)amino)pyrazine-2-carbonitrile], the concentration for half-maximal inhibition (IC50) was in the range of 0.01 to 0.0316 µM on human Chk1 kinase and 10 to 100 µM on human Chk2 kinase.
Taken in the same sequence, the figures for `N#Cc1cnc(Nc2cn(-c3cccc(N4CCN5CCC[C@H]5C4)c3)cn2)cn1` [Example 35, (S)-5-((1-(3-(Hexahydropyrrolo[1,2-a]pyrazin-2(1H)-yl)phenyl)-1H-imidazol-4-yl)amino)pyrazine-2-carbonitrile] were 0.0316 to 0.1 µM and more than 100 µM.
